Reference: patent publication US20090111691A1, “Fungicides and Bioregulatory Mixtures” (priority 2005, published 2009)

Tested on: Puccinia recondita
Assay: Curative activity against brown rust of wheat (Puccrt K1), potted wheat seedlings cultivar Kanzler
Format: in vivo
Conditions: efficacy in % of untreated control, sprayed 1 day after inoculation, rated after 7 days, read-out: Observed activity (%)
Description: The active compounds were prepared separately or jointly as a stock solution with 25 mg of active compound which was made up to 10 ml using a mixture of acetone and/or DMSO and the emulsifier Uniperol® EL (wetting agent having emulsifying and dispersing action based on ethoxylated alkylphenols) in a volume ratio of solvent/emulsifier of 99 to 1. The mixture was then made up to 100 ml with water. This stock solution was diluted with the solvent/emulsifier/water mixture described to the concentration of active compounds stated below.
The visually determined percentages of infected leaf areas or the measured elongation were converted into efficacies in % of the untreated control:
The efficacy (E) is calculated as follows using Abbot's formula: […]
The expected efficacies of mixtures of active compounds were determined using Colby's formula (Colby, S. R. “Calculating synergistic and antagonistic responses of herbicide combinations”, Weeds, 15, pp. 20-22, 1967) and compared with the observed efficacies. […]
Leaves of potted wheat seedlings of the cultivar “Kanzler” were inoculated with a spore suspension of brown rust (Puccinia recondita). […] The extent of the rust fungus development on the leaves was then determined. The visually determined values for the percentage of infected leaf area were initially converted into a mean value and then converted into efficacies in % of the untreated control. […]

Structure (SMILES) | inhibition at 250 µg/mL (Conc. 0.25 mg/ml) | inhibition at 60 µg/mL (Conc. 0.06 mg/ml)
Fc1ccc(C2(Cn3cncn3)OC2c2ccccc2Cl)cc1 (centres unmarked) [Epoxiconazole, epoxiconazole] | 11% | –
CCOC(=O)C1CC(=O)C(=C(O)C2CC2)C(=O)C1 (centres unmarked) [Trinexapac-ethyl, trinexapac-ethyl] | – | 0%
